Experimental data taken from patent publication US10604514B2, “6-(5-membered heteroaryl)isoquinolin-3-yl carboxamides and preparation and use thereof” (Samumed, LLC, priority 2017, dated 2020).
Like-named read-outs stand apart in the source and are kept apart here.

Key:
[1] = test system: Tau phosphorylation at Ser396 (pSer396), SH-SY5Y cells; test: Tau phosphorylation at Ser396 (pSer396) in SH-SY5Y cells, ELISA/western blot; type: cell-based, human; details: Homo sapiens;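 further: cell lysates probed for reduced Tau pSer396 via ELISA (colorimetric) or western blot (chemiluminescence), both with one shared pSer396 antibody, EC50 for lowering phosphorylation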
IL-6 = IL-6 inhibition in LPS-stimulated human peripheral blood mononuclear cells (HTRF); type: cell-based; details: Homo sapiens, PBMC; for inhibition at 10 µM: read-out: percent value in parentheses below EC50 >10; for EC50: IL-6, LPS-stimulated huPBMCs, HTRF
How it was run: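 Fresh human PBMCs (5000 cells/well, 1% FBS RPMI) preincubated with compound (10-point 1:3 series from 10 μM, 0.25% DMSO) 2 h at 37 °C, then stimulated with 50 ng/mL E. coli LPS for 22 h. IL-6 by HTRF 665/620 ratio; DMSO-normalized, EC50 from 4-parameter fit.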

[2] = test system: Wnt activity (Sp5-Luc reporter in SW480 colon carcinoma cells); test: Wnt activity screening assay (Sp5-Luc reporter gene assay); type: cell-based, human
How it was run: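 SW480 cells stably carrying an Sp5 promoter (eight TCF/LEF sites)-firefly luciferase reporter were plated in DMEM with 1% FBS and treated with a 10-point, 1:3 dilution series from 10 μM (0.1% DMSO) for 36 to 48 h at 37° C. Luminescence was normalized to DMSO controls, and EC50 came from four-parameter nonlinear regression.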

[3] = test system: LL29 cells (primary human fibroblasts derived from IPF patients), α-smooth muscle actin; test: Inhibition of fibrotic process: αSMA in TGF-β1-treated primary human fibroblasts from IPF patients (LL29 cells); type: cell-based; details: Homo sapiens, Fibroblast; for EC50: 96 h, % αSMA-positive LL29 cells, TGF-β1 20 ng/mL, 4 days; for inhibition at 10 µM: read-out: percent inhibition at 10 μM
How it was run: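 IPF-patient lung fibroblasts (LL29) were stimulated with TGF-β1 (20 ng/mL) in 1% FBS medium with compound (11-point 1:2 series, 0.1% DMSO) for 4 days at 37 °C. Fixed cells were immunostained for αSMA and imaged, excluding SYTOX-positive dead cells. The % αSMA-positive cells was normalized to TGF-β1/DMSO control wells.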

DYRK1A kinase = DYRK1A kinase (Homo sapiens (Human), UniProt Q13627); test: DYRK1A kinase assay (Ser/Thr 18 peptide Z-lyte, FRET)
[4] = test system: SW480 colon carcinoma cells; test: Cell viability assay (CellTiter-Glo) in SW480 cells; type: cell-based, human; details: Homo sapiens; for EC50: 96 h, cell viability, SW480 cells, four days, CellTiter-Glo;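 on all read-outs here: SW480 cells stably carrying an Sp5-luciferase TCF/LEF reporter, luminescent ATP signal as viability measure, DMSO-treated cells as control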
GSK3β kinase = GSK3β kinase (Homo sapiens (Human), UniProt P49841); test: GSK3β kinase assay (Ser/Thr 09 peptide Z-lyte, FRET); type: biochemical; details: method text calls the value IC50;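 further: Coumarin/fluorescein emission ratio converted to percent phosphorylation against unphosphorylated (0%) and phosphorylated (100%) controls, 1 h compound incubation at room temperature, 11-point threefold dilutions from 10 µM, run in duplicate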
GSK3β kinase, sequence (P49841 whole entry): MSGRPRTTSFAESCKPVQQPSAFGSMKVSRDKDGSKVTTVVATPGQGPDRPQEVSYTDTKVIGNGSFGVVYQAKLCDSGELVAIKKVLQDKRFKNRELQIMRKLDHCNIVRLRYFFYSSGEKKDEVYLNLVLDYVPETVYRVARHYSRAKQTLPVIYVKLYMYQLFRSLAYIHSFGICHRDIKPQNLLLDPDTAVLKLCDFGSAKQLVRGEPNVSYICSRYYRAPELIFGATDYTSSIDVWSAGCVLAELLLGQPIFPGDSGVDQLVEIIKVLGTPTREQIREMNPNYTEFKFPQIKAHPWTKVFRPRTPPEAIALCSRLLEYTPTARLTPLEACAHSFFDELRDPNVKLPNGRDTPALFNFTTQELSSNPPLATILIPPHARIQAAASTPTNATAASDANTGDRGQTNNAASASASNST

[5] = SH-SY5Y cells, overnight (16-18 h), read-out: pSer396 Tau EC50
[6] = Homo sapiens; Sp5-Luc reporter, SW480 cells, 36 to 48 hours
[7] = DYRK1A kinase, method text calls the value IC50

Compound | EC50 [1, 5] [µM] | inhibition at 10 µM (IL-6) [%] | EC50 (IL-6) [µM] | EC50 [2, 6] [µM] | EC50 [3] [µM] | EC50 (DYRK1A kinase) [µM] | EC50 [4] [µM] | EC50 (GSK3β kinase) [µM] | inhibition at 10 µM [3] [%] | inhibition at 10 µM ([2]; Homo sapiens, SW480; read-out: percent inhibition at 10 μM) [%] | EC50 (DYRK1A kinase; [7]) [µM] | EC50 ([1]; SH-SY5Y, read-out: pSer396 Tau EC50 (μM)) [µM] | inhibition at 10 µM ([2]; Homo sapiens, SW480, read-out: percent inhibition at 10 μM) [%] | inhibition at 10 µM ([4]; SW480, read-out: percent inhibition at 10 μM) [%]
[2H]C([2H])([2H])C(N[C@H]1CCN(C(=O)Nc2cc3cc(-c4nnc(C)s4)ccc3cn2)C[C@@H]1F)C([2H])([2H])[2H] [Compound 139, (3S,4S)-3-Fluoro-N-(6-(5-methyl-1,3,4-thiadiazol-2-yl)isoquinolin-3-yl)-4-((propan-2-yl-1,1,1,3,3,3-d6)amino)piperidine-1-carboxamide] | 1.4 | 6.6 | > 10 | 2.81 | 2.35 | 0.022 | 7.35 | 0.033 |  |  |  |  |  | 
[2H]C1([2H])OC([2H])([2H])C([2H])([2H])N(C(=O)Nc2cc3cc(-c4cnc(C)n4C)ccc3cn2)C1([2H])[2H] [Compound 143, N-(6-(1,2-Dimethyl-1H-imidazol-5-yl)isoquinolin-3-yl)morpholine-d8-4-carboxamide] | 7.2 | 5.7 | > 10 | 2.94 | > 10 | 0.011 | 3.36 | 1.78 | 40.4 |  |  |  |  | 
[2H]C([2H])([2H])N([C@H]1CC[C@H](C(=O)Nc2cc3cc(-c4cnc(C)o4)ccc3cn2)CC1)C([2H])([2H])[2H] [Compound 144, trans-4-(Bis(methyl-d3)amino)-N-(6-(2-methyloxazol-5-yl)isoquinolin-3-yl) cyclohexane-1-carboxamide] | > 10 | 14.3 | > 10 | > 10 | 1.38 | 0.02 | 3.77 | 0.021 |  | 35.8 |  |  |  | 
[2H]C([2H])([2H])N([C@H]1CC[C@H](C(=O)Nc2cc3cc(-c4cnn(C)c4)ccc3cn2)CC1)C([2H])([2H])[2H] [Compound 145, trans-4-(Bis(methyl-d3)amino)-N-(6-(1-methyl-1H-pyrazol-4-yl)isoquinolin-3-yl)cyclohexane-1-carboxamide] | 0.503 |  | 0.371 | 1.81 | 0.072 | 0.002 | 1.49 | 0.08 |  |  |  |  |  | 
Cc1nnc(-c2ccc3cnc(NC(=O)N4CCN(C(C)C)CC4)cc3c2)s1 [Compound 146, 4-Isopropyl-N-(6-(5-methyl-1,3,4-thiadiazol-2-yl)isoquinolin-3-yl) piperazine-1-carboxamide] | 1 | 2.1 | > 10 | 3.11 | > 10 |  | 3.83 | 0.062 | 35.1 |  | 0.022 |  |  | 
Cc1nnc(-c2ccc3cnc(NC(=O)N4CCC(NCCC(F)(F)F)CC4)cc3c2)s1 [Compound 147, N-(6-(5-Methyl-1,3,4-thiadiazol-2-yl)isoquinolin-3-yl)-4-((3,3,3-trifluoropropyl)amino)piperidine-1-carboxamide] | 1.1 | 36.8 | > 10 | 3.33 | 1.64 |  | 4.14 | 0.037 |  |  | 0.018 |  |  | 
Cc1ncc(-c2ccc3cnc(NC(=O)[C@H]4CC[C@H](NCCC(F)(F)F)CC4)cc3c2)o1 [Compound 148, trans-N-(6-(2-Methyloxazol-5-yl)isoquinolin-3-yl)-4-((3,3,3-trifluoropropyl)amino)cyclohexane-1-carboxamide] | 0.599 |  | 0.414 | 3.44 | 0.286 |  | 1.2 | 0.257 |  |  | 0.014 |  |  | 
Cc1ncc(-c2ccc3cnc(NC(=O)[C@H]4CC[C@H](N)CC4)cc3c2)o1 [Compound 149, trans-4-amino-N-(6-(2-methyloxazol-5-yl)isoquinolin-3-yl)cyclohexane-1-carboxamide] | 1.1 |  | 0.379 | 1.4 | 0.216 |  | 1.33 | 0.128 |  |  | 0.007 |  |  | 
Cc1nnc(-c2ccc3cnc(NC(=O)N4CCC(N)CC4)cc3c2)s1 [Compound 150, 4-Amino-N-(6-(5-methyl-1,3,4-thiadiazol-2-yl)isoquinolin-3-yl)piperidine-1-carboxamide] | 0.272 | 5.7 | > 10 | 2.19 | > 10 |  | 3.92 | 0.023 | 43.7 |  | 0.013 |  |  | 
Cc1nnc(-c2ccc3cnc(NC(=O)N4[C@@H]5CC[C@H]4C[C@H](N)C5)cc3c2)s1 [Compound 151, (1R,5S)-3-exo-Amino-N-(6-(5-methyl-1,3,4-thiadiazol-2-yl)isoquinolin-3-yl)-8-azabicyclo[3.2.1]octane-8-carboxamide] |  | 13.1 | > 10 | > 10 | 2.69 |  | > 10 | 0.103 |  |  | 0.009 | 2.6 | 4.4 | 0
Cc1ncc(-c2ccc3cnc(NC(=O)C4CCC(N5CC5CF)CC4)cc3c2)o1 (stereo not drawn) [Compound 154, trans-4-(2-(fluoromethyl)aziridin-1-yl)-N-(6-(2-methyloxazol-5-yl)isoquinolin-3-yl)cyclohexane-1-carboxamide] | 0.58 |  | 1.13 | 2.76 | 0.24 | 0.005 | 0.761 | 0.124 |  |  |  |  |  | 
Cc1nnc(-c2ccc3cnc(NC(=O)N4CCC(NCCF)CC4)cc3c2)s1 [Compound 156, 4-((2-Fluoroethyl)amino)-N-(6-(5-methyl-1,3,4-thiadiazol-2-yl)isoquinolin-3-yl)piperidine-1-carboxamide] | 0.615 | 28.8 | > 10 | 2.84 | 2.38 |  | 2.55 | 0.034 |  |  | 0.007 |  |  | 
[2H]c1c([2H])c([2H])c(C(=O)Nc2cc3cc(-c4cnc(C)n4C)ccc3cn2)c(F)c1[2H] [Compound 157, N-(6-(1,2-Dimethyl-1H-imidazol-5-yl)isoquinolin-3-yl)-2-fluorobenzamide-3,4,5,6-d4] | 0.72 | 0 | > 10 | 1.73 | 5.79 | 0.019 | 2.38 | > 10 |  |  |  |  |  | 
[2H]c1c([2H])c(C(=O)Nc2cc3cc(-c4cnc(C)n4C)ccc3cn2)c([2H])c([2H])c1F [Compound 158, N-(6-(1,2-Dimethyl-1H-imidazol-5-yl)isoquinolin-3-yl)-4-fluorobenzamide-2,3,5,6-d4] | > 10 |  | 3.35 | 0.514 | 1.22 | 0.005 | 0.781 | 2.6 |  |  |  |  |  | 
[2H]c1c([2H])c([2H])c(C(=O)Nc2cc3cc(-c4cnc(C)n4C)ccc3cn2)c(Cl)c1[2H] [Compound 159, 2-Chloro-N-(6-(1,2-dimethyl-1H-imidazol-5-yl)isoquinolin-3-yl)benzamide-3,4,5,6-d4] | > 10 | 1.6 | > 10 | 4.2 | > 10 | 0.027 | 8 | > 10 | 31.4 |  |  |  |  | 
[2H]c1c([2H])c(C(=O)Nc2cc3cc(-c4cnc(C)n4C)ccc3cn2)c([2H])c([2H])c1Cl [Compound 160, 4-Chloro-N-(6-(1,2-dimethyl-1H-imidazol-5-yl)isoquinolin-3-yl)benzamide-2,3,5,6-d4] | > 10 |  | 3.3 | 0.309 | 1.01 | 0.004 | 0.415 | 3.03 |  |  |  |  |  | 
[2H]C([2H])([2H])c1ccc(C(=O)Nc2cc3cc(-c4cnc(C)n4C)ccc3cn2)cc1 [Compound 161, N-(6-(1,2-Dimethyl-1H-imidazol-5-yl)isoquinolin-3-yl)-4-(methyl-d3) benzamide] | > 10 | 42.2 | > 10 | 0.736 | 3 | 0.01 | 0.66 | 5.67 |  |  |  |  |  | 
